Reference: paper PMC12731105, “Design and Synthesis of New Quinoxaline Analogs to Regenerate Sensory Auditory Hair Cells” (Cells, 2025)
Like-named read-outs stand apart in the source and are kept apart here.

What was measured:
[1] = test system: mechanotransduction channel activity of mouse cochlear HCs; experiment: FM1-43 uptake in mouse cochlear HCs; assay type: in vivo; conditions: mice, 24, 48 and 72 h after injection
Method: The styryl pyridinium dye FM1-43 provides an optical measure of mechanotransduction channel function and, therefore, was used as a proxy for the viability of the neuromast cells treated with QX-294 or QX-301, as well as indirect information on the functional capability of newly formed HCs. FM1-43FX (Thermo Scientific, Waltham, MA, USA) uptake experiments in zebrafish were performed as previously described. Zebrafish were incubated with E3 alone (control) or in the presence of Qx-294 or Qx-301, both at 300 μM, for 7 h and then immediately exposed to 3 μM FM1-43FX for 40 s. Alternatively, animals were transferred to a fresh E3 solution for 1 h and then exposed to the dye. For mouse treatment, 24, 48, and 72 h after animals were injected with […] Qx-294 or Qx-301, their cochleae were dissected, transiently exposed to FM1-43 FX dye (1 mg/mL) for 45 s, and then fixed in 4% PFA. All animals were P28 at completion of the treatment. Fluorescence incorporated was quantified according to [19] using ImageJ (ImageJ2 1.54r).

[2] = test system: mouse auditory function; experiment: Auditory brainstem response (ABR); assay type: in vivo, mice (Mus musculus); conditions: for ABR vs control, 24 h treatment / ABR hearing vs control: C57BL/6J mice; for ABR vs control, 24 h treatment: 24 h post-treatment; for ABR hearing vs control: greater benefits at higher frequencies and at 48 and 72 h, Two-Way ANOVA, p < 0.01; for Frequency at which modest improvement in hearing threshold begins: audiometric threshold shift (ABR/DPOAE) vs vehicle-only controls
Method: C57BL/6J male and female mice between postnatal day 24 and 30 P-24-30) were randomized into control and experimental groups (9 mice per group per compound), with each experimental group receiving a single intraperitoneal (IP) injection of Qx-294 or Qx-301 at a dose of 300 mg/kg body weight, dissolved in dimethyl sulfoxide (DMSO). Controls consisted of treatment with DMSO alone (vehicle). A total of 90 adult wild-type C57/BL6 mice were used in this study. Based on the analysis, animals were examined at various times following treatment as described below.
Mice from all groups underwent auditory brainstem response (ABR) and distortion product otoacoustic emissions (DPOAEs) tests before the initiation of treatment with either compounds or vehicle, and at 24, 48, and 72 h post-treatment, as described below. After audiometric testing, pre-treatment mice were placed in a warm and clean cage and monitored until they were awake and able to remain upright in a sternal position. Alternatively, post-treatment mice had their cochleae processed for histological examination.
Mice were anesthetized with a ketamine (18 mg/mL) and xylazine (2 mg/mL) solution (5–9 μL per gram body weight injected intraperitoneally). Core body temperature was maintained at 37.0 ± 0.1 C using a homeothermic heating pad system (FHC, Inc., Bowdoin, ME, USA). Tone burst stimuli were generated and controlled using Tucker Davis Technologies (TDT, Gainesville, FL, USA) System III (RX6, PA5 components). Tone bursts at 8, 16, 32, and 41.2 kHz had 1.0 ms rise-fall times with 1.0 ms plateau (3 ms total duration) and alternating stimulus polarity. Stimuli for ABR testing were calibrated using a Bruel & Kjaar type 4138 ¼” microphone and Nexus type 2691 conditioning amplifier. Stimuli were calibrated in dB peSPL and presented via high-frequency transducers (TDT SA1 driver, MF1 speakers) coupled at the ear via PE tubing. Auditory stimuli were presented at a rate of 17 stimuli per second.

[3] = test system: zebrafish lateral line neuromast HCs; experiment: Zebrafish neuromast morphology scoring (otoferlin/GFP immunofluorescence); assay type: in vivo, zebrafish (Danio rerio); conditions: 5-dpf zebrafish, 24 h; for Neuromast morphology scores vs control: 50–300 μg/mL in E3 medium, Kruskal–Wallis, p > 0.05
Method: The GFP (Tg(brn3c: GFP) zebrafish larvae expressing HC membrane-bound GFP [19] were used to evaluate the effect of Qx-294 and Qx-301 on HCs and SCs of the lateral line neuromasts. Healthy 5-dpf zebrafish, maintained at 28.5 °C, were randomly distributed into Petri dishes at a density of 50 embryos/larvae per 100 mm^2 and exposed to various concentrations of Qx-294 and Qx-301 (50, 100, 150, 200, 250, and 300 μg/mL) diluted in E3 (5 mM NaCl, 0.17 mM KCl, 0.33 mM CaCl2 and 0.33 MgSO4, pH 7.2) medium for 24 h. Following treatment, the animals were transferred to E3 media for 30 min to recover, then cryoanesthetized and fixed with 4% paraformaldehyde (PFA) overnight at 4 °C. The following neuromasts were analyzed in our studies: IO4 (infraorbital 4), OP1 (opercular 1), M2 (mandibular 2), O1 (otic 1), O2, and MI2 (middle 2). An arbitrary scoring protocol was used to rank the morphology of each neuromast after treatment as follows: 1 (normal rosette-like shape, HCs look normal, HC bundles are properly arranged), 2 (normal rosette-like shape, a few HCs appear to be missing, but HC bundles are properly arranged), 3 (normal rosette-like morphology but several HCs are gone and HC bundles look disturbed), 4 (the rosette-like shape is lost in certain areas, few HCs, and few disrupted HC bundles), and 5 (no rosette-like shape, one or two dispersed HCs and no HC bundles). At least 25 animals per treatment were assessed, for a total of 200 across the entire study. The assessment was performed in a double-blind and unbiased manner. Scores were expressed as percentages of the total of neuromasts analyzed per treatment.
Cochlear dissection in mice and immunofluorescence experiments on zebrafish neuromasts and mouse cochleae were performed as previously described. The antibody and labeling kits used in this study included Otoferlin (Developmental Studies Hybridoma Bank, Iowa City, IA, USA, HCS-1), GFP (Novus Biologicals, NB100-1614), and rabbit anti-myosin VIIa (M7a) (Thermo Scientific, Waltham, MA, USA, PA1-936). Species-specific Alexa Fluor-conjugated secondary antibodies were used for detection. Phalloidin conjugated to Alexa 488 (Thermo Scientific, Waltham, MA, USA, O7466) and DAPI were used for labeling stereocilia and the nucleus, respectively.

[4] = PAMPA permeability assay; assay type: in vitro ADME
Method: The parallel artificial membrane permeability assay (PAMPA), an artificial membrane that simulates a biological membrane, was used. A 96-well membrane filter-based microtiter plate system with donor and acceptor compartments separated by the membrane was employed. The compounds were dissolved in 5% DMSO in phosphate-buffered saline (PBS) solution with Lucifer yellow, a dye used to assess membrane integrity. The solution was placed in the donor well, and PBS was added to the acceptor well. The membrane was generated by dissolving lecithin in an inert organic solvent and placed onto a hydrophobic PVDF filter.

SMILES | FM1-43 fluorescence intensity incorporated by the cochleae vs control [1] | ABR vs control, 24 h treatment [2] | ABR hearing vs control [2] | Frequency at which modest improvement in hearing threshold begins [2] [kHz] | Neuromast morphology scores vs control [3] | Neuromast morphology at the highest concentrations vs control ([3]; not statistically significant) | Papp at 16 h ([4]; 16 h incubation, read-out: Permeability) [×10⁻⁶ cm/s] | Neuromast morphology at 50 and 150 μg/mL ([3]; not statistically significant) | Permeability ([4]; 16 h incubation) | Papp at 16 h ([4]; read-out: PAMPA permeability) [×10⁻⁶ cm/s]
c1ccc2nc(N3CCCC3)cnc2c1 [Qx-301, 2-(pyrrolidine)-quinoxaline] | did not show any significant differences from the control samples | no statistically significant differences | improved hearing for all test frequencies | ≥ 22.6 | did not differ significantly from those of the control group | improved morphology | 0.77 ± 0.91 | – | – | –
c1ccc2nc(N3CCOCC3)cnc2c1 [Qx-294, 2-(morpholine)-quinoxaline] | did not show any significant differences from the control samples | no statistically significant differences | improved hearing for all test frequencies | ≥ 16 | did not differ significantly from those of the control group | – | – | some HC loss was observed | 3.5 ± 3.0 ×10^−6 cm/s^−1 | ~3.5
